{"source": "patent US10278979B2", "about": "“Therapeutic agent for intractable leukemia” (RIKEN, priority 2015, dated 2019)", "key": {"[1]": {"system": "patient-derived MLL cells (MLL-AF9)", "assay": "Leukemia humanized mouse (MLL-AF9), human leukemia cells in peripheral blood", "assay_type": "in vivo", "conditions": "MLL-AF9 cases in NSG mice; dexamethasone 70 mg/kg IP daily and/or RK-20449 30 mg/kg IP BID; FIG. 1-3", "source_text": "(§1) NOD. Cg-Prkdc^scid Il2rg^tmlWjl/Sz (NOD/SCID/IL2rg^null, NSG) mice were developed by subjecting a complete null mutation in the Il2rg gene locus to back cross with NOD. Cg-Prkdc^scid (NOD/SCID) lineage, in the Jackson Laboratory (Bar Harbor, Me. state, USA) (Shultz, L. D. et al., Multiple defects in innate and adaptive immunologic function in NOD/LtSz-scid mouse. J. Immunol. 154, 180-191 (1995)). The mice were raised by feeding irradiated food and acidified water in the animal facilities of RIKEN and the Jackson Laboratory in accordance with the guideline established by the Institutional Animal Committees and maintained under bacterial flora specified.\n(§2) NSG mice in the neonatal period were exposed to radiation (1.5 G) and then patient-derived MLL cells (MLL-AF9) were transplanted to the mice. After the presence of the human leukemia cells in the peripheral blood was confirmed by flow cytometry based on the presence of hCD45+CD19+, treatment of the mice (leukemia humanized mice) with dexamethasone (70 mg/kg IP daily) and/or RK-20449 (30 mg/kg IP BID, twice a day) or both was started."}, "[2]": {"system": "MLL cells (MLL-AF9 ALL cells)", "assay": "Secondary transplantation of MLL cells remaining after treatment into neonatal NSG mice", "assay_type": "in vivo, mouse", "conditions": "cells taken from treated primary recipient, FIG. 7", "source_text": "Finally, human leukemia cells remaining in the bone marrow were purified by sorting and transplanted to neonatal NSG mice (secondary transplantation).\nMLL cells (MLL-AF9 ALL cells) were transplanted (primary transplant) to an immunodeficient mouse and a treatment with a combination of dexamethasone and RK-20449 was applied. Thereafter, MLL cells were taken from the mouse and transplanted to another immunodeficient mouse (secondary transplantation). The results are shown in the graphs as FIG. 7. The cases treated with dexamethasone alone and RK-20449 alone were used as controls (for comparison)."}, "[3]": {"system": "MLL cells (MLL-AF9 ALL cell) in the bone marrow", "assay": "Leukemia humanized mouse (MLL-AF9), human leukemia cells in bone marrow (flow cytometry, hCD45/DAB staining)", "assay_type": "in vivo", "conditions": "MLL-AF9 case; after treatment; FIG. 4", "source_text": "as §1, §2\nAfter the treatment, the mice were euthanized and the appearance frequency of human leukemia cells in the bone marrow was determined by flow cytometry. At the same time, one of the femur bones was fixed in PFA and […]-thin sections were prepared. […]"}}, "note": "“Also recorded” adds a separate entry of the source.", "data": [{"smiles": "CN1CCN([C@H]2CC[C@H](n3cc(-c4ccc(Oc5ccccc5)cc4)c4c(N)ncnc43)CC2)CC1", "note": "[RK-20449, 7-[trans-4-(4-methyl-1-piperazinyl)cyclohexyl]-5-(4-phenoxyphenyl)-7H-pyrrolo[2,3-d]pyrimidin-4-amine]", "values": [{"measurement": "chimerism (percentage) of human leukemia cells in the mouse peripheral blood", "setting": "[1]", "result": "not easy to eradicate MLL by single use; also recorded: impossible to expect complete cure of MLL"}, {"measurement": "MLL cells in secondary transplantation recipient (proliferation after transplantation)", "setting": "[2]", "result": "MLL cells were present in significantly high percentages"}, {"measurement": "medicinal effect in the bone marrow (appearance frequency of human leukemia cells, flow cytometry)", "setting": "[3]", "result": "A sufficient therapeutic effect was not obtained"}]}]}
